Experiment [1] deals with T1, NS3-NS4A protease (Hepatitis C virus genotype 1a, UniProt P27958).
T1 construct: Recombinant E. coli or Baculovirus full-length NS3 was diluted to 3.33 μM with assay buffer; made in house; host or cells: E. coli or baculovirus (BV) system
Put plainly: NS3-NS4A protease assay (NS3 inhibition assay, RETS1 substrate), Section B. In kind it is biochemical. An outline of the steps:
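Kinetic fluorescence read (335 nm excitation, 495 nm emission, 30 min) of RETS1 cleavage by NS3/NS4A-2 complex, 2 nM E. coli or 3 nM baculovirus NS3, after 10 min room-temperature compound pre-incubation. Four-parameter-fit IC50s converted to Ki by Cheng–Prusoff, Ki=IC50/(1+[S]/Km).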

In experiment [2] the test system is HCV sub-genomic replicon, GS4.3. Put plainly: Quantitation by ELISA of NPTII in the HCV sub-genomic replicon, GS4.3, Section B. In kind it is cell-based. Particulars: Hepatitis C virus, read-out: Replicon EC50. An outline of the steps: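 NPTII marker protein in lysates was quantified by ELISA read at 450 nm after 72 h inhibitor exposure (3-fold series, final DMSO 1%, G418-free medium) of HuH-7 cells stably harbouring the subgenomic HCV replicon. Values relative to DMSO-treated controls; 4-parameter curves gave EC50.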

Read-outs that look alike come from different tables or passages of the source.

T1 sequence (P27958 1027-1657): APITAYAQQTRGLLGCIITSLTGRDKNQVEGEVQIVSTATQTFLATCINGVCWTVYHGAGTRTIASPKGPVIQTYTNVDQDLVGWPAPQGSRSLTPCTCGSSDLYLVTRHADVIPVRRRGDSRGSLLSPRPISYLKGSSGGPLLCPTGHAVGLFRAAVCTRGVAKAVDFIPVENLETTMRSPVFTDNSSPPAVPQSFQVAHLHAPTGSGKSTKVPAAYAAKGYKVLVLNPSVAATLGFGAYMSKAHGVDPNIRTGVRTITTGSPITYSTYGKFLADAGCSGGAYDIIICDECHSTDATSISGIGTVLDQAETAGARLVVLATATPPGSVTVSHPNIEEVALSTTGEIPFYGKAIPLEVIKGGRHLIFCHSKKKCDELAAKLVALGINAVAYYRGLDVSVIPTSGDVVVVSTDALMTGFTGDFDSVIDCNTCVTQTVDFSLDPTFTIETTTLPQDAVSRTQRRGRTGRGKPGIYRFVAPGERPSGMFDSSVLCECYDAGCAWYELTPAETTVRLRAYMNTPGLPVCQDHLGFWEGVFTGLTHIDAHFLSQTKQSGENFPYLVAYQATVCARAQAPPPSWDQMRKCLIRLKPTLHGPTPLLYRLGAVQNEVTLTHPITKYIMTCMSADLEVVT

As usually defined, the IC50 is the midpoint of a concentration-inhibition curve. For orientation: EC50 means the midpoint of the concentration-response curve. With `O=C(CC1CCCC1)N[C@H]1CCCCC/C=C\[C@@H]2C[C@@]2(C(=O)NS(=O)(=O)C2CC2)NC(=O)[C@@H]2C[C@@H](OC(=O)N3Cc4ccc(Cl)cc4C3)CN2C1=O` [AR00334226, (1S,4R,6S,14S,18R)-5-Chloro-1,3-dihydro-isoindole-2-carboxylic acid 14-(2-cyclopentyl-acetylamino)-4-cyclopropanesulfonylaminocarbonyl-2,15-dioxo-3,16-diaza-tricyclo[14.3.0.0^4,6]nonadec-7-en-18-yl ester], in experiment [1] (read-out: NS3-NS4A IC50), the half-maximal inhibitory concentration (IC50) is under 100 nM. The EC50 in experiment [2] (GS4.3 cells, 72 h incubation) was under 100 nM.

`CC1(C)CN(C(=O)O[C@@H]2C[C@H]3C(=O)N[C@]4(C(=O)NS(=O)(=O)C5CC5)C[C@H]4/C=C\CCCCC[C@H](NC(=O)O[C@H]4CCOC4)C(=O)N3C2)Cc2ccccc21` [AR00314654, (1S,4R,6S,14S,18R)-4,4-Dimethyl-3,4-dihydro-1H-isoquinoline-2-carboxylic acid 4-cyclopropanesulfonylaminocarbonyl-2,15-dioxo-14-(tetrahydro-furan-3S-yloxycarbonylamino)-3,16-diaza-tricyclo[14.3.0.0^4,6]nonadec-7-en-18-yl ester]: the IC50 in experiment [1] (read-out: NS3-NS4A IC50) was under 100 nM. For the same compound, in experiment [2] (GS4.3 cells, 72 h incubation), the EC50 is under 100 nM.

Turning to `CC(C)(C)OC(=O)N[C@H]1CCCCC/C=C\[C@@H]2C[C@@]2(C(=O)NS(=O)(=O)C2CC2)NC(=O)[C@@H]2C[C@@H](OC(=O)N3Cc4cccc(N)c4C3)CN2C1=O` [AR00334385, (1S,4R,6S,14S,18R)-4-Amino-1,3-dihydro-isoindole-2-carboxylic acid 14-tert-butoxycarbonylamino-4-cyclopropanesulfonylaminocarbonyl-2,15-dioxo-3,16-diaza-tricyclo[14.3.0.0^4,6]nonadec-7-en-18-yl ester], the concentration for half-maximal inhibition (IC50) in experiment [1] (read-out: NS3-NS4A IC50) was under 100 nM. Further, in experiment [2] (GS4.3 cells, 72 h incubation), the EC50 was under 100 nM.

Turning to `CC(C)(C)NC(=O)N[C@H]1CCCCC/C=C\[C@@H]2C[C@@]2(C(=O)NS(=O)(=O)C2CC2)NC(=O)[C@@H]2C[C@@H](OC(=O)N3Cc4cc(Cl)c(Cl)cc4C3)CN2C1=O` [AR00320447, (1S,4R,6S,14S,18R)-5,6-Dichloro-1,3-dihydro-isoindole-2-carboxylic acid 14-(3-tert-butyl-ureido)-4-cyclopropanesulfonylaminocarbonyl-2,15-dioxo-3,16-diaza-tricyclo[14.3.0.0^4,6]nonadec-7-en-18-yl ester], the concentration for half-maximal inhibition (IC50) in experiment [1] (read-out: NS3-NS4A IC50) is under 100 nM. For the same compound, the EC50 in experiment [2] (GS4.3 cells, 72 h incubation) is under 1000 nM.

Turning to `COc1ccc(S(=O)(=O)NC(=O)[C@@]23C[C@H]2/C=C\CCCCC[C@H](NC(=O)OC(C)(C)C)C(=O)N2C[C@H](OC(=O)N4CCc5ccccc5C4)C[C@H]2C(=O)N3)cc1` [AR00320548, (1S,4R,6S,14S,18R)-3,4-Dihydro-1H-isoquinoline-2-carboxylic acid 14-tert-butoxycarbonylamino-4-(4-methoxy-benzenesulfonylaminocarbonyl)-2,15-dioxo-3,16-diaza-tricyclo[14.3.0.0^4,6]nonadec-7-en-18-yl ester], the IC50 in experiment [1] (read-out: NS3-NS4A IC50) was under 100 nM. Also, the EC50 in experiment [2] (72 h) was under 100 nM.

`CN(C)CCOc1ccc2c(c1)CN(C(=O)O[C@@H]1C[C@H]3C(=O)N[C@]4(C(=O)NS(=O)(=O)C5CC5)C[C@H]4/C=C\CCCCC[C@H](NC(=O)OC(C)(C)C)C(=O)N3C1)C2` [AR00345095, (1S,4R,6S,14S,18R)-5-(2-Dimethylamino-ethoxy)-1,3-dihydro-isoindole-2-carboxylic acid 14-tert-butoxycarbonylamino-4-cyclopropanesulfonylaminocarbonyl-2,15-dioxo-3,16-diaza-tricyclo[14.3.0.0^4,6]nonadec-7-en-18-yl ester]: the IC50 in experiment [1] (read-out: NS3-NS4A IC50) was under 100 nM. Moreover, the EC50 in experiment [2] (GS4.3 cells, 72 h incubation) is under 100 nM.

Regarding `CC(C)(C)OC(=O)N[C@H]1CCCCC/C=C\[C@@H]2C[C@@]2(C(=O)O)NC(=O)[C@@H]2C[C@@H](NC(=S)N3CCc4ccccc4C3)CN2C1=O` [AR00304010, (1S,4R,6S,14S,18R)-14-tert-Butoxycarbonylamino-18-[(3,4-dihydro-1H-isoquinoline-2-carbothioyl)-amino]-2,15-dioxo-3,16-diaza-tricyclo[14.3.0.0^4,6]nonadec-7-ene-4-carboxylic acid], the IC50 in experiment [1] (read-out: NS3-NS4A IC50) is under 1000 nM. Also, in experiment [2] (GS4.3 cells, 72 h incubation), the EC50 was under 10000 nM.

On to `CC(C)[C@@H](NC(=O)c1cnccn1)C(=O)N[C@H]1CCCCC/C=C\[C@@H]2C[C@@]2(C(=O)O)NC(=O)[C@@H]2C[C@@H](OC(=O)N3CCc4ccccc4C3)CN2C1=O` [AR00301338, (1S,4R,6S,14S,18R)-18-(3,4-Dihydro-1H-isoquinoline-2-carbonyloxy)-14-{3-methyl-2-[(pyrazine-2-carbonyl)-amino]-butyrylamino}-2,15-dioxo-3,16-diaza-tricyclo[14.3.0.0^4,6]nonadec-7-ene-4-carboxylic acid], for which the IC50 in experiment [1] was under 100 nM. Also, in experiment [2] (72 h), the EC50 was under 10000 nM.

In the case of `O=C(N[C@H]1CCCCC/C=C\[C@@H]2C[C@@]2(C(=O)NS(=O)(=O)C2CC2)NC(=O)[C@@H]2C[C@@H](OC(=O)N3CCc4ccccc4[C@@H]3CN3CCCCC3)CN2C1=O)OC1CCCC1` [AR00320556, (1S,4R,6S,14S,18R)-1-Piperidin-1R-ylmethyl-3,4-dihydro-1H-isoquinoline-2-carboxylic acid 14-cyclopentyloxycarbonylamino-4-cyclopropanesulfonylaminocarbonyl-2,15-dioxo-3,16-diaza-tricyclo[14.3.0.0^4,6]nonadec-7-en-18-yl ester], the IC50 in experiment [1] (read-out: NS3-NS4A IC50) is under 100 nM. The EC50 in experiment [2] (GS4.3 cells, 72 h incubation) is under 100 nM.

Take `O=C(N[C@H]1CCCCC/C=C\[C@@H]2C[C@@]2(C(=O)O)NC(=O)[C@@H]2C[C@@H](OC(=O)N3Cc4ccccc4C3)CN2C1=O)OC1CCCC1` [AR00304076, (1S,4R,6S,14S,18R)-14-Cyclopentyloxycarbonylamino-18-(1,3-dihydro-isoindole-2-carbonyloxy)-2,15-dioxo-3,16-diaza-tricyclo[14.3.0.0^4,6]nonadec-7-ene-4-carboxylic acid]: the IC50 in experiment [1] (read-out: NS3-NS4A IC50) is under 100 nM. Further, in experiment [2] (GS4.3 cells, 72 h incubation), the EC50 is under 1000 nM.

Take `COCC1c2cccc(F)c2CCN1C(=O)O[C@@H]1CC2C(=O)N[C@]3(C(=O)NS(=O)(=O)C4CC4)C[C@H]3/C=C\CCCCC[C@H](NC(=O)OC(C)(C)C)C(=O)N2C1` (stereo partly drawn) [AR00365193, (1S,4R,6S,14S,18R)-5-Fluoro-1-methoxymethyl-3,4-dihydro-1H-isoquinoline-2-carboxylic acid 14-tert-butoxycarbonylamino-4-cyclopropanesulfonylaminocarbonyl-2,15-dioxo-3,16-diaza-tricyclo[14.3.0.0^4,6]nonadec-7-en-18-yl ester]: in experiment [1] (read-out: NS3-NS4A IC50), the IC50 was under 100 nM. Also, in experiment [2] (GS4.3 cells, 72 h incubation), the EC50 is under 100 nM.

As for `CC(C)(C)NC(=O)N[C@H]1CCCCC/C=C\[C@@H]2C[C@@]2(C(=O)O)NC(=O)[C@@H]2C[C@@H](OC(=O)N3Cc4cc(Cl)c(Cl)cc4C3)CN2C1=O` [AR00320450, (1S,4R,6S,14S,18R)-14-(3-tert-Butyl-ureido)-18-(5,6-dichloro-1,3-dihydro-isoindole-2-carbonyloxy)-2,15-dioxo-3,16-diaza-tricyclo[14.3.0.0^4,6]nonadec-7-ene-4-carboxylic acid], the IC50 in experiment [1] (read-out: NS3-NS4A IC50) was under 1000 nM. Further, in experiment [2] (GS4.3 cells, 72 h incubation), the EC50 was under 10000 nM.

These data come from patent US7491794B2, “Macrocyclic compounds as inhibitors of viral replication” (Intermune, Inc., priority 2003, dated 2009).
